Starred links: 1 amine or outer side, 2 acyl side, 3 side chain; linkers in the order of their positions; H or OH if unused. Non-standard residues stand in square brackets, D forms with d. Residues, ends and D or L forms follow the SMILES beside them. Groups on a side chain read outwards from the residue. *: point of attachment. C20 diacid = O=C(O)CCCCCCCCCCCCCCCCCCC(=O)*; γGlu = O=C(O)[C@H](CCC(=O)[*:2])N[*:1]; AEEA = NCCOCCOCC(=O)O; Aib = CC(C)(N)C(=O)O
Tests used:
human GIP R = target: T1, human GIP R (Homo sapiens, UniProt P48546); test: cell-based
T1 sequence (P48546 22-466): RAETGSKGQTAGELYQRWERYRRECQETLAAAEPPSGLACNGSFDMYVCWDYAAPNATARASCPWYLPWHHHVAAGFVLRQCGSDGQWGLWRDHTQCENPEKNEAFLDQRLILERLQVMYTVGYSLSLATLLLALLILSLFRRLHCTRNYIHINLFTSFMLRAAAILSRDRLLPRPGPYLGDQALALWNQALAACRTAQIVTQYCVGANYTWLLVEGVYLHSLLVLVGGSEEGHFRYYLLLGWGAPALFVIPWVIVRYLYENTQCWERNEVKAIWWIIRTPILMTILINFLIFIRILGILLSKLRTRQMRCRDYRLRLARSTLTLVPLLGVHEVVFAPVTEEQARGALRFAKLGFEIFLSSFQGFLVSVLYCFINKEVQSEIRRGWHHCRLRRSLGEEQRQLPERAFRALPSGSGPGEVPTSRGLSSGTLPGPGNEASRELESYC

[1] = target: T2, human GIP receptor (GIP R) (Homo sapiens, UniProt P48546); test: Activity assay at human GIP receptor, cAMP induction (AlphaScreen), Example 3
T2 sequence (P48546 22-466): T1 sequence (P48546 22-466)

[2] = target: human GLP-1 receptor (GLP-1R) (Homo sapiens, UniProt P43220); test: Activity assay at human GLP-1 receptor, cAMP induction (AlphaScreen), Example 3
Chain of human GLP-1 receptor (GLP-1R) (P43220 24-463): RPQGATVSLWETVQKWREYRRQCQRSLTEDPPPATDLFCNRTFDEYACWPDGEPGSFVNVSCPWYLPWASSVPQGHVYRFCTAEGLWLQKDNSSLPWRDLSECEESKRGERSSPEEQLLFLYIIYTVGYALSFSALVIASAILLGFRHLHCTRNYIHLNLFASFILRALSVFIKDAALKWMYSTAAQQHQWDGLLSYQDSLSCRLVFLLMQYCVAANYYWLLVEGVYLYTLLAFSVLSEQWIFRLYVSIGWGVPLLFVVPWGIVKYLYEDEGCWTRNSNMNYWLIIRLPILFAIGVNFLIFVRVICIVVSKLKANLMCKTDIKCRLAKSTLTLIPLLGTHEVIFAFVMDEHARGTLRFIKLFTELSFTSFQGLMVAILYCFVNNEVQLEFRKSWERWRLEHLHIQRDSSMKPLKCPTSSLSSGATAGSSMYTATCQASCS

Row | Compound | EC50 (human GIP R) [pM] | EC50 [1] [pM] | EC50 [2] [nM]
1 | CC[C@H](C)[C@H](NC(=O)[C@H](CCCCN)NC(=O)[C@H](CC(=O)O)NC(=O)[C@H](CC(C)C)NC(=O)[C@H](CCC(=O)O)NC(=O)[C@@H](NC(=O)[C@H](CO)NC(=O)[C@H](Cc1ccc(O)cc1)NC(=O)[C@H](CC(=O)O)NC(=O)[C@H](CO)NC(=O)[C@@H](NC(=O)[C@H](Cc1ccccc1)NC(=O)[C@@H](NC(=O)CNC(=O)[C@H](CCC(=O)O)NC(=O)C(C)(C)NC(=O)[C@@H](N)Cc1ccc(O)cc1)[C@@H](C)O)[C@@H](C)CC)[C@@H](C)CC)C(=O)N[C@@H](C)C(=O)N[C@@H](CCC(N)=O)C(=O)N[C@@H](CCCCN)C(=O)N[C@@H](CCC(=O)O)C(=O)N[C@@H](Cc1ccccc1)C(=O)N[C@H](C(=O)N[C@@H](CCC(=O)O)C(=O)N[C@@H](Cc1c[nH]c2ccccc12)C(=O)N[C@@H](CC(C)C)C(=O)N[C@@H](CC(C)C)C(=O)N[C@@H](C)C(=O)NCC(=O)N1CCC[C@H]1C(=O)N[C@@H](CO)C(=O)N[C@@H](CO)C(=O)NCC(=O)N[C@@H](C)C(=O)N1CCC[C@H]1C(=O)N1CCC[C@H]1C(=O)N1CCC[C@H]1C(=O)N[C@@H](CO)C(=O)N[C@@H](CCCCNC(=O)COCCOCCNC(=O)COCCOCCNC(=O)CC[C@H](NC(=O)CCCCCCCCCCCCCCCCCCC(=O)O)C(=O)O)C(N)=O)[C@@H](C)CC [Compound 24] (H-Y[Aib]EGTFISDYSIELDKIAQKEFIEWLLAGPSSGAPPPSK([AEEA-AEEA-γGlu-C20 diacid])-NH2) | 8 | 10 | > 10
2 | CC[C@H](C)[C@H](NC(=O)[C@H](CO)NC(=O)[C@H](Cc1ccc(O)cc1)NC(=O)[C@H](CC(=O)O)NC(=O)[C@H](CO)NC(=O)[C@@H](NC(=O)[C@H](Cc1ccccc1)NC(=O)[C@@H](NC(=O)CNC(=O)[C@H](CCC(=O)O)NC(=O)C(C)(C)NC(=O)[C@@H](N)Cc1ccc(O)cc1)[C@@H](C)O)[C@@H](C)CC)C(=O)N[C@@H](CCC(=O)O)C(=O)N[C@@H](CC(C)C)C(=O)N[C@@H](CCC(=O)O)C(=O)N[C@@H](CCCCN)C(=O)N[C@@H](CCCCNC(=O)COCCOCCNC(=O)COCCOCCNC(=O)CC[C@H](NC(=O)CCCCCCCCCCCCCCCCCCC(=O)O)C(=O)O)C(=O)N[C@@H](C)C(=O)N[C@@H](C)C(=O)N[C@@H](CCCCN)C(=O)N[C@@H](CCC(=O)O)C(=O)N[C@@H](Cc1ccccc1)C(=O)N[C@H](C(=O)N[C@@H](CC(N)=O)C(=O)N[C@@H](Cc1c[nH]c2ccccc12)C(=O)N[C@@H](CC(C)C)C(=O)N[C@@H](CC(C)C)C(=O)N[C@@H](C)C(=O)N[C@@H](CCC(N)=O)C(=O)NCC(=O)N1CCC[C@H]1C(=O)N[C@@H](CO)C(=O)N[C@@H](CO)C(=O)NCC(=O)N[C@@H](C)C(=O)N1CCC[C@H]1C(=O)N1CCC[C@H]1C(=O)N1CCC[C@H]1C(=O)N[C@@H](CO)C(N)=O)C(C)C [Compound 11] (H-Y[Aib]EGTFISDYSIELEKK([AEEA-AEEA-γGlu-C20 diacid])AAKEFVNWLLAQGPSSGAPPPS-NH2) | 9 | 8 | > 3
3 | CC[C@H](C)[C@H](NC(=O)[C@H](Cc1ccccc1)NC(=O)[C@H](CC(=O)O)NC(=O)[C@H](CCC(N)=O)NC(=O)[C@H](C)NC(=O)[C@H](C)NC(=O)[C@H](CCCCNC(=O)COCCOCCNC(=O)COCCOCCNC(=O)CC[C@H](NC(=O)CCCCCCCCCCCCCCCCCCC(=O)O)C(=O)O)NC(=O)[C@H](CCCCN)NC(=O)[C@H](CC(=O)O)NC(=O)[C@H](CC(C)C)NC(=O)[C@H](CCC(=O)O)NC(=O)[C@@H](NC(=O)[C@H](CO)NC(=O)[C@H](Cc1ccc(O)cc1)NC(=O)[C@H](CC(=O)O)NC(=O)[C@H](CO)NC(=O)[C@@H](NC(=O)[C@H](Cc1ccccc1)NC(=O)[C@@H](NC(=O)CNC(=O)[C@H](CCC(=O)O)NC(=O)C(C)(C)NC(=O)[C@@H](N)Cc1ccc(O)cc1)[C@@H](C)O)[C@@H](C)CC)[C@@H](C)CC)C(=O)N[C@@H](CCC(=O)O)C(=O)N[C@@H](Cc1c[nH]c2ccccc12)C(=O)N[C@@H](CC(C)C)C(=O)N[C@@H](CC(C)C)C(=O)N[C@@H](C)C(=O)N[C@@H](CCC(N)=O)C(=O)NCC(=O)N1CCC[C@H]1C(=O)N[C@@H](CO)C(=O)N[C@@H](CO)C(=O)NCC(=O)N[C@@H](C)C(=O)N1CCC[C@H]1C(=O)N1CCC[C@H]1C(=O)N1CCC[C@H]1C(=O)N[C@@H](CO)C(N)=O [Compound 38] (H-Y[Aib]EGTFISDYSIELDKK([AEEA-AEEA-γGlu-C20 diacid])AAQDFIEWLLAQGPSSGAPPPS-NH2) | 1 | 17 | > 100
4 | CC[C@H](C)[C@H](NC(=O)[C@H](Cc1ccccc1)NC(=O)[C@H](C)NC(=O)[C@H](CCC(N)=O)NC(=O)[C@H](C)NC(=O)[C@H](C)NC(=O)[C@H](CCCCNC(=O)COCCOCCNC(=O)COCCOCCNC(=O)CC[C@H](NC(=O)CCCCCCCCCCCCCCCCCCC(=O)O)C(=O)O)NC(=O)[C@H](CCCCN)NC(=O)[C@H](CC(=O)O)NC(=O)[C@H](CC(C)C)NC(=O)[C@H](CCC(=O)O)NC(=O)[C@@H](NC(=O)[C@H](CO)NC(=O)[C@H](Cc1ccc(O)cc1)NC(=O)[C@H](CC(=O)O)NC(=O)[C@H](CO)NC(=O)[C@@H](NC(=O)[C@H](Cc1ccccc1)NC(=O)[C@@H](NC(=O)CNC(=O)[C@H](CCC(=O)O)NC(=O)C(C)(C)NC(=O)[C@@H](N)Cc1ccc(O)cc1)[C@@H](C)O)[C@@H](C)CC)[C@@H](C)CC)C(=O)N[C@@H](CCC(=O)O)C(=O)N[C@@H](Cc1c[nH]c2ccccc12)C(=O)N[C@@H](CC(C)C)C(=O)N[C@@H](CC(C)C)C(=O)N[C@@H](C)C(=O)N[C@@H](CCC(N)=O)C(=O)NCC(=O)N1CCC[C@H]1C(=O)N[C@@H](CO)C(=O)N[C@@H](CO)C(=O)NCC(=O)N[C@@H](C)C(=O)N1CCC[C@H]1C(=O)N1CCC[C@H]1C(=O)N1CCC[C@H]1C(=O)N[C@@H](CO)C(N)=O [Compound 40] | 10 | 7 | > 10
5 | CC[C@H](C)[C@H](NC(=O)[C@H](CCCCN)NC(=O)[C@H](CC(=O)O)NC(=O)[C@H](CC(C)C)NC(=O)[C@H](CCC(=O)O)NC(=O)[C@@H](NC(=O)[C@H](CO)NC(=O)[C@H](Cc1ccc(O)cc1)NC(=O)[C@H](CC(=O)O)NC(=O)[C@H](CO)NC(=O)[C@@H](NC(=O)[C@H](Cc1ccccc1)NC(=O)[C@@H](NC(=O)CNC(=O)[C@H](CCC(=O)O)NC(=O)C(C)(C)NC(=O)[C@@H](N)Cc1ccc(O)cc1)[C@@H](C)O)[C@@H](C)CC)[C@@H](C)CC)C(=O)N[C@@H](C)C(=O)N[C@@H](CCC(N)=O)C(=O)N[C@@H](CCCNC(=N)N)C(=O)N[C@@H](C)C(=O)N[C@@H](Cc1ccccc1)C(=O)N[C@H](C(=O)N[C@@H](CCC(=O)O)C(=O)N[C@@H](Cc1c[nH]c2ccccc12)C(=O)N[C@@H](CC(C)C)C(=O)N[C@@H](CC(C)C)C(=O)N[C@@H](C)C(=O)NCC(=O)N1CCC[C@H]1C(=O)N[C@@H](CO)C(=O)N[C@@H](CO)C(=O)NCC(=O)N[C@@H](C)C(=O)N1CCC[C@H]1C(=O)N1CCC[C@H]1C(=O)N1CCC[C@H]1C(=O)N[C@@H](CO)C(=O)N[C@@H](CCCCNC(=O)COCCOCCNC(=O)COCCOCCNC(=O)CC[C@H](NC(=O)CCCCCCCCCCCCCCCCCCC(=O)O)C(=O)O)C(N)=O)[C@@H](C)CC [Compound 23] (H-Y[Aib]EGTFISDYSIELDKIAQRAFIEWLLAGPSSGAPPPSK([AEEA-AEEA-γGlu-C20 diacid])-NH2) | 10 | 5 | > 10
6 | CC[C@H](C)[C@H](NC(=O)[C@H](Cc1ccccc1)NC(=O)[C@H](C)NC(=O)[C@H](CCCNC(=N)N)NC(=O)[C@H](CCC(N)=O)NC(=O)[C@H](C)NC(=O)[C@H](CCCCNC(=O)COCCOCCNC(=O)COCCOCCNC(=O)CC[C@H](NC(=O)CCCCCCCCCCCCCCCCCCC(=O)O)C(=O)O)NC(=O)[C@H](CCCCN)NC(=O)[C@H](CC(=O)O)NC(=O)[C@H](CC(C)C)NC(=O)[C@H](CCC(=O)O)NC(=O)[C@@H](NC(=O)[C@H](CO)NC(=O)[C@H](Cc1ccc(O)cc1)NC(=O)[C@H](CC(=O)O)NC(=O)[C@H](CO)NC(=O)[C@@H](NC(=O)[C@H](Cc1ccccc1)NC(=O)[C@@H](NC(=O)CNC(=O)[C@H](CCC(=O)O)NC(=O)[C@@H](C)NC(=O)[C@@H](N)Cc1ccc(O)cc1)[C@@H](C)O)[C@@H](C)CC)[C@@H](C)CC)C(=O)N[C@@H](CCC(=O)O)C(=O)N[C@@H](Cc1c[nH]c2ccccc12)C(=O)N[C@@H](CC(C)C)C(=O)N[C@@H](CC(C)C)C(=O)N[C@@H](C)C(=O)N[C@@H](CCC(N)=O)C(=O)NCC(=O)N1CCC[C@H]1C(=O)N[C@@H](CO)C(=O)N[C@@H](CO)C(=O)NCC(=O)N[C@@H](C)C(=O)N1CCC[C@H]1C(=O)N1CCC[C@H]1C(=O)N1CCC[C@H]1C(=O)N[C@@H](CO)C(N)=O [Compound 36] (H-Y[dA]EGTFISDYSIELDKK([AEEA-AEEA-γGlu-C20 diacid])AQRAFIEWLLAQGPSSGAPPPS-NH2) | 6 | 6 | > 10

Reference: patent US12703729B2, “GIP agonist compounds and methods” (Zealand Pharma A/S, priority 2014, dated 2026)
